Source: US7750154B2, “Amide derivatives” (AstraZeneca AB, priority 2003, dated 2010)

Experiments:
p38α = molecular target: T1, p38α (Homo sapiens, UniProt Q16539); test: In vitro enzyme assay, p38α kinase; type: biochemical
T1 construct: c-myc (N); 6His (N); made in house; host or cells: E. coli (PET vectors)

[1] = tested on: TNFα production in human whole blood; test: Human whole blood assay, LPS-stimulated TNFα production; type: cell-based; conditions: inhibition of TNFα production
Description: The ability of a test compound to inhibit TNFα production was also assessed in a human whole blood assay. Human whole blood secretes TNFα when stimulated with LPS. […] Plates were incubated for 30 minutes at 37° C. (humidified incubator), prior to addition of 20 μl LPS (final concentration 10 μg/ml). Culture medium was added to control wells. Six “LPS alone” and six “medium alone” controls were included on each plate. A known TNFα synthesis/secretion inhibitor was included in each test. Plates were incubated for 6 hours at 37° C. (humidified incubator). Plates were centrifuged (2000 rpm for 10 minutes) and 80 μl plasma removed and stored at −80° C. (Corning 3799 plates). TNFα levels were measured by ELISA using paired antibodies from R&D Systems (catalogue nos. MAB610 and BAF210).

T1 sequence (Q16539 whole entry): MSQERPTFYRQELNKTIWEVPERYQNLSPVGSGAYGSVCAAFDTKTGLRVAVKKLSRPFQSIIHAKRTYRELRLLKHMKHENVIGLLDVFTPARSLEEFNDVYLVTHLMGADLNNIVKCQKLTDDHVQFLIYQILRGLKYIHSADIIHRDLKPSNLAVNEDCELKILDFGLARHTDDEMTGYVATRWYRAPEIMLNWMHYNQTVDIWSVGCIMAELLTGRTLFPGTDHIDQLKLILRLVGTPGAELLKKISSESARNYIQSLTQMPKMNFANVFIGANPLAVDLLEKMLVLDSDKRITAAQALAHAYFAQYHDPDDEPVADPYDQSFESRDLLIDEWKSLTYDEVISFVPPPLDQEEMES

Structure (SMILES)	IC50 (p38α)	IC50 [1]
Cc1ccc(NC(=O)c2cc(F)cc(F)c2)cc1-n1cnc2ccc(N3CCN(C)CC3)cc2c1=O [Comparator Compound B, 3-[5-(3,5-difluorobenzamido)-2-methylphenyl]-6-(4-methylpiperazin-1-yl)-3,4-dihydroquinazolin-4-one, reference compound]	41 nM	3850 nM
Cc1ccc(NC(=O)c2ccnc(Cl)c2)cc1-n1cnc2ccc(N3CCN(C)CC3)cc2c1=O [Comparator Compound A, 3-[5-(2-chloropyrid-4-ylcarbonylamino)-2-methylphenyl]-6-(4-methylpiperazin-1-yl)-3,4-dihydroquinazolin-4-one, reference compound]	277 nM	3710 nM
Cc1ccc(C(=O)NC2(C)CC2)cc1-n1cnc2ccc(N3CCN(C)CC3)cc2c1=O [6 (a), 4-methyl-N-(1-methylcyclopropyl)-3-[6-(4-methylpiperazin-1-yl)-4-oxoquinazolin-3(4H)-yl]benzamide]	81 nM	351 nM

The next lines start with the values.

IC50 (p38α)	IC50 [1]	Structure (SMILES)
19 nM	17 nM	Cc1ccc(C(=O)NC2CC2)cc1-n1cnc2ccc(OCCN(C)C)cc2c1=O [Example 24, N-Cyclopropyl-3-[6-[2-(dimethylamino)ethoxy]-4-oxoquinazolin-3(4H)-yl]-4-methylbenzamide]
8 nM	34 nM	CCCN1CCCN(c2ccc3ncn(-c4cc(C(=O)NC5CC5)ccc4C)c(=O)c3c2)CC1 [Example 7, N-cyclopropyl-4-methyl-3-[4-oxo-6-(4-propyl-1,4-diazepan-1-yl)quinazolin-3(4H)-yl]benzamide]
